Results on 8 molecules are retold here after patent publication US12371454B2, “Cyclic peptide compound having Kras inhibitory action” (priority 2019, dated 2025).

For experiment [1], the target named is T1, Kras and SOS1 (biotin-tagged human Kras loaded with GDP, His-tagged human SOS1) (Homo sapiens, UniProt P01116, G12D).
T1 construct: made in house; host or cells: E. coli (stated for Kras only)
As to the kind of experiment: Protein-protein interaction inhibition between Kras and SOS1 (KrasGl2D-SOS PPI) using AlphaScreen. The following applies: AlphaScreen; biotin-tagged human Kras loaded with GDP, His-tagged human SOS1; read-out: KRAS G12D-SOS PPI IC50. The experiment is classed as binding. In outline:
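Binding between SOS1 and Kras is detected as bead-proximity luminescence: illuminate Ni-conjugated donors (680 nm), collect 520-620 nm emission from streptavidin-conjugated acceptors; Kras carries biotin and GDP loaded after purification, SOS1 carries a His tag.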
(In general: In Alpha technology, singlet oxygen from a donor bead excites a nearby acceptor bead.)

Experiment [2] concerns Human pancreatic cancer cell line AsPC-1. The experiment in a line: Measurement of AsPC-1 cell growth inhibition (AsPC-1 CGI). The settings on record: 96 h. The experiment is classed as cell-based. In outline:
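AsPC-1 cells in 15% FBS RPMI-1640 were exposed to test compound for 96 hours at 37° C, with CellTiter-Glo as endpoint.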

Starred links: 1 amine or outer side, 2 acyl side, 3 side chain; linkers in the order of their positions; H or OH if unused. Positions of bridges follow the written chain, without caps; N, C: chain ends. Non-standard residues stand in square brackets, D forms with d. Residues, ends and D or L forms follow the SMILES beside them. *: point of attachment. hPhe(3-Cl-4-CF3) = N[C@@H](CCc1ccc(C(F)(F)F)c(Cl)c1)C(=O)O; NMePhe(4-CF3) = CN[C@@H](Cc1ccc(C(F)(F)F)cc1)C(=O)O; NMePhe(3-CN) = CN[C@@H](Cc1cccc(C#N)c1)C(=O)O; NMePhe(4-Me) = CN[C@@H](Cc1ccc(C)cc1)C(=O)O; NMedβ3hAla = C[C@H](CC(=O)[*:2])N(C)[*:1]; NMeGly(cPent) = CN[C@H](C(=O)O)C1CCCC1; X21 = O=C(CN(c1cccc(Cl)c1)[*:1])[*:2]; X43 = O=C(CN(c1ccc(Cl)cc1)[*:1])[*:2]; NMehPhe = CN[C@@H](CCc1ccccc1)C(=O)O; NMeGly(cBu) = CN[C@H](C(=O)O)C1CCC1; NMeCha = CN[C@@H](CC1CCCCC1)C(=O)O; NMeChg = CN[C@H](C(=O)O)C1CCCCC1; NMeD = CN[C@@H](CC(=O)O)C(=O)O; NMeL = CN[C@@H](CC(C)C)C(=O)O; NMeV = CN[C@H](C(=O)O)C(C)C; NMeAbu = CC[C@H](NC)C(=O)O; Iva = CC[C@](C)(N)C(=O)O; Morpholide = C1CN(*)CCO1; NMeA = CN[C@@H](C)C(=O)O; NMeAib = CNC(C)(C)C(=O)O; Piperidide = C1CCN(*)CC1; Pyrrolidide = C1CCN(*)C1; Ac5c = NC1(C(=O)O)CCCC1; Aze = O=C(O)[C@@H]1CCN1; Sar = CNCC(=O)O

The term IC50 denotes the concentration needed to halve the response being measured.

T1 sequence (P01116 1-188 isoform P01116-2 G12D): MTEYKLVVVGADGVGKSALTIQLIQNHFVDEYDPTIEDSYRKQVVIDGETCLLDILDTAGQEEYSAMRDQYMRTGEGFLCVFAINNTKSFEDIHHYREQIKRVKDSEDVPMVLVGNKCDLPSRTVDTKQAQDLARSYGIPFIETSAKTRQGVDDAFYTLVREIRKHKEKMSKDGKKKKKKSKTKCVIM

As for `CC[C@H](C)[C@@H]1NC(=O)[C@H](CC(C)C)N(C)C(=O)C[C@@H](C(=O)N2CCOCC2)N(C)C(=O)[C@H](C(C)C)N(C)C(=O)C2(CCCC2)NC(=O)[C@@H]2CCCN2C(=O)[C@H](CCc2ccc(C(F)(F)F)c(Cl)c2)NC(=O)CN(C)C(=O)[C@H](CC2CCCCC2)N(C)C(=O)CN(C)C(=O)CN(C)C1=O` [Compound 1934] ([NMeL]I[Sar][Sar][NMeCha][Sar][hPhe(3-Cl-4-CF3)]P[Ac5c][NMeV][NMeD]-Morpholide; lactam N-11), the IC50 in experiment [1] is 1 nM; in experiment [2], 100 to 500 nM.

Consider `CC[C@H](C)[C@@H]1NC(=O)[C@H](C)N(C)C(=O)C[C@@H](C(=O)N2CCCCC2)N(C)C(=O)[C@H](C2CCC2)N(C)C(=O)C(C)(C)N(C)C(=O)CN(c2ccc(Cl)cc2)C(=O)[C@H](CCc2ccc(C(F)(F)F)c(Cl)c2)NC(=O)CN(C)C(=O)[C@H](C2CCC2)N(C)C(=O)[C@@H]2CCN2C(=O)[C@H](C)N(C)C1=O` [Compound 2147] ([NMeA]I[NMeA][Aze][NMeGly(cBu)][Sar][hPhe(3-Cl-4-CF3)][X43][NMeAib][NMeGly(cBu)][NMeD]-Piperidide; lactam N-11), for which the IC50 is 8 nM in experiment [1] and more than 500 nM in experiment [2].

In the case of `CC[C@H](C)[C@@H]1NC(=O)[C@H](CC(C)C)N(C)C(=O)C[C@@H](C(=O)N2CCCC2)N(C)C(=O)[C@H](C2CCCC2)N(C)C(=O)C2(CCCC2)NC(=O)[C@@H]2CCCN2C(=O)[C@H](CCc2ccc(C(F)(F)F)c(Cl)c2)NC(=O)CN(C)C(=O)[C@H](Cc2ccc(C)cc2)N(C)C(=O)[C@@H]2CCN2C(=O)[C@H](C)N(C)C1=O` [Compound 1840] ([NMeL]I[NMeA][Aze][NMePhe(4-Me)][Sar][hPhe(3-Cl-4-CF3)]P[Ac5c][NMeGly(cPent)][NMeD]-Pyrrolidide; lactam N-11), the IC50 is 1.2 nM in experiment [1] and 20 to 50 nM in experiment [2].

Regarding `CC[C@H](C)[C@@H]1NC(=O)[C@H](CC(C)C)N(C)C(=O)C[C@@H](C)N(C)C(=O)[C@H](C(C)C)N(C)C(=O)C2(CCCC2)NC(=O)[C@@H]2CCCN2C(=O)[C@H](CCc2ccc(C(F)(F)F)c(Cl)c2)NC(=O)CN(C)C(=O)[C@H](CCc2ccccc2)N(C)C(=O)CN(C)C(=O)CN(C)C1=O` [Compound 1634] (cyclo([Ac5c][NMeV][NMedβ3hAla][NMeL]I[Sar][Sar][NMehPhe][Sar][hPhe(3-Cl-4-CF3)]P)), the IC50 in experiment [1] is 13 nM; in experiment [2], 50 to 100 nM.

Regarding `CC[C@H](C)[C@@H]1NC(=O)[C@H](CC(C)C)N(C)C(=O)C[C@@H](C(=O)N2CCCCC2)N(C)C(=O)[C@H](C2CCCCC2)N(C)C(=O)[C@](C)(CC)NC(=O)[C@@H]2CCCN2C(=O)[C@H](CCc2ccc(C(F)(F)F)c(Cl)c2)NC(=O)CN(C)C(=O)[C@H](CC2CCCCC2)N(C)C(=O)CN(C)C(=O)CN(C)C1=O` [Compound 1302] ([NMeL]I[Sar][Sar][NMeCha][Sar][hPhe(3-Cl-4-CF3)]P[Iva][NMeChg][NMeD]-Piperidide; lactam N-11), the IC50 in experiment [1] was 0.75 nM; in experiment [2], 100 to 500 nM.

On to `CC[C@H](C)[C@@H]1NC(=O)[C@H](CC)N(C)C(=O)C[C@@H](C(=O)N2CCCC2)N(C)C(=O)[C@H](C2CCCCC2)N(C)C(=O)C2(CCCC2)NC(=O)[C@@H]2CCCN2C(=O)[C@H](CCc2ccc(C(F)(F)F)c(Cl)c2)NC(=O)CN(C)C(=O)[C@H](Cc2ccc(C(F)(F)F)cc2)N(C)C(=O)CN(C)C(=O)CN(C)C1=O` [Compound 1890] ([NMeAbu]I[Sar][Sar][NMePhe(4-CF3)][Sar][hPhe(3-Cl-4-CF3)]P[Ac5c][NMeChg][NMeD]-Pyrrolidide; lactam N-11), for which the IC50 is 0.55 nM in experiment [1] and 20 to 50 nM in experiment [2].

On to `CC[C@H](C)[C@@H]1NC(=O)[C@H](CC(C)C)N(C)C(=O)C[C@@H](C)N(C)C(=O)[C@H](C(C)C)N(C)C(=O)C2(CCCC2)NC(=O)[C@@H]2CCCN2C(=O)[C@H](CCc2ccc(C(F)(F)F)c(Cl)c2)NC(=O)CN(C)C(=O)[C@H](Cc2cccc(C#N)c2)N(C)C(=O)CN(C)C(=O)CN(C)C1=O` [Compound 238] (cyclo([Ac5c][NMeV][NMedβ3hAla][NMeL]I[Sar][Sar][NMePhe(3-CN)][Sar][hPhe(3-Cl-4-CF3)]P)), for which the half-inhibitory concentration (IC50) is 12 nM in experiment [1] and 100 to 500 nM in experiment [2].

With `CC[C@H](C)[C@@H]1NC(=O)[C@H](C)N(C)C(=O)C[C@@H](C(=O)N2CCCCC2)N(C)C(=O)[C@H](C2CCC2)N(C)C(=O)C(C)(C)N(C)C(=O)CN(c2cccc(Cl)c2)C(=O)[C@H](CCc2ccc(C(F)(F)F)c(Cl)c2)NC(=O)CN(C)C(=O)[C@H](C2CCC2)N(C)C(=O)[C@@H]2CCN2C(=O)[C@H](C)N(C)C1=O` [Compound 2146] ([NMeA]I[NMeA][Aze][NMeGly(cBu)][Sar][hPhe(3-Cl-4-CF3)][X21][NMeAib][NMeGly(cBu)][NMeD]-Piperidide; lactam N-11), the IC50 in experiment [1] was 5.1 nM; in experiment [2] it was more than 500 nM.
